Results as given in US20240415819A1, “MACROCYCLIC COMPOUNDS AS PROTEASOME SUBUNIT BETA TYPE-5 INHIBITORS” (Lead Discovery Center GmbH, priority 2021, published 2024).

Columns and labels:
[1] = target: T1, β5 subunit of the human constitutive proteasome (CPS) (Homo sapiens, UniProt P28074); test: β5 inhibition assay, human constitutive proteasome (Suc-LLVY-AMC); type: biochemical; conditions: IC50 class, Suc-LLVY-AMC substrate
T1 construct: purchased Boston Biochem E-360
Description: The enzymatic activity of the β5 subunit of the human constitutive proteasome (CPS) is analyzed. In another assay, which differs from the assay of the human constitutive proteasome only in using the human immunoproteasome (IPS) the enzymatic activity of the β5 subunit of the human immunoproteasome (IPS) is analyzed. […] Inhibition is indicated as IC50 [nM] (“-”=not measured).

[2] = target: T2, β5 subunit of the human immunoproteasome (IPS) (Homo sapiens, UniProt P28062); test: β5 inhibition assay, human immunoproteasome (Suc-LLVY-AMC); type: biochemical; conditions: IC50 class, Suc-LLVY-AMC substrate
T2 construct: purchased Boston Biochem E-370
Outline: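 β5 activity is read as liberated AMC fluorescence (355/460 nm) after 4 h dark reaction at RT with 22.6 μM Suc-LLVY-AMC, stopped by 1 μM bortezomib. Beforehand, 1 nM human IPS and compound sat 10 min at RT in HEPES pH 7.5 buffer containing NaCl, 0.02% SDS and DTT.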

[3] = system: A549 (human lung carcinoma cell line); test: Glo assay of A549 cells (Table 3; ProteasomeGlo plating scheme); type: cell-based; conditions: Homo sapiens; A549 cells; read-out: PGLo A549
Outline: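 Cells plated in 384 wells; compound, DMSO, staurosporine transferred by ECHO; 105 min, 37° C., 5% CO2; Proteasome-Glo (Suc-LLVY-Glo) reagent added; dark 10-15 min; luminescence; IC50 nM.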

[4] = system: Hs 746T (human gastric carcinoma cell line); test: 48 hr CTG viability assay, Hs 746T; type: cell-based; conditions: Hs746T, 48 hr CTG, read-out: Hs 746T IC50
Outline: (§1)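 Growth inhibition by compound over 48 h; IC50 (nM) derived from duplicate CellTiter-Glo luminescence readings across 0.0015–10 uM.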

[5] = system: MM1 S (B lymphoblast cell line); test: 48 hr CTG viability assay, MM1S; type: cell-based; conditions: Homo sapiens, 48 hr CTG, read-out: MM1S IC50
Outline: as §1

[6] = system: RPMI 8226 (B lymphocyte cell line, multiple myeloma); test: 48 hr CTG viability assay, RPMI 8226; type: cell-based; conditions: Homo sapiens, RPMI-8226; 48 hr CTG; read-out: RPMI-8226 IC50
Outline: as §1

Row | Structure (SMILES) | IC50 [1] [µM] | IC50 [2] [µM] | IC50 [3] [µM] | IC50 [4] [µM] | IC50 [5] [µM] | IC50 [6] [µM]
1 | Cc1ccc2cc1CNC(=O)[C@H](CCc1ccccc1)NC(=O)[C@@H](NC(=O)CCOCCC1CC1)CC(=O)N1CCCC(CCO2)C1 (stereo partly drawn) [Compound 630, 3-(2-cyclopropylethoxy)-N-((9S,12S)-5^4-methyl-8,11,14-trioxo-9-phenethyl-4-oxa-7,10-diaza-1(3,1)-piperidina-5(1,3)-benzenacyclotetradecaphane-12-yl)propanamide] | < 0.1 | < 0.1 | < 0.1 | < 0.1 | < 0.1 | < 0.1
2 | Cc1ccc2cc1CNC(=O)[C@H](CCc1ccccc1)NC(=O)[C@@H](NC(=O)CCNCCC1CCC1)CC(=O)N1CCCC(CCO2)C1 (stereo partly drawn) [Compound 693, 3-((2-cyclobutylethyl)amino)-N-((9S,12S)-5^4-methyl-8,11,14-trioxo-9-phenethyl-4-oxa-7,10-diaza-1(3,1)-piperidina-5(1,3)-benzenacyclotetradecaphane-12-yl)propanamide] | < 0.1 | < 0.1 | < 0.1 | < 0.1 | < 0.1 | < 0.1
3 | COc1ccccc1COCCC(=O)N[C@H]1CC(=O)N2CCCC(CCOc3ccc(C)c(c3)CNC(=O)[C@H](CCc3ccccc3)NC1=O)C2 (stereo partly drawn) [Compound 619, 3-((2-methoxybenzyl)oxy)-N-((9S,12S)-5^4-methyl-8,11,14-trioxo-9-phenethyl-4-oxa-7,10-diaza-1(3,1)-piperidina-5(1,3)-benzenacyclotetradecaphane-12-yl)propanamide] | < 0.1 | < 0.1 | < 0.1 | < 0.1 | < 0.1 | < 0.1
4 | Cc1cn([C@H]2CC(=O)N3CCCC(CCOc4ccc(C)c(c4)CNC(=O)[C@H](CCc4ccccc4)NC2=O)C3)nn1 (stereo partly drawn) [Compound 740, (9S,12S)-5^4-methyl-12-(4-methyl-1H-1,2,3-triazol-1-yl)-9-phenethyl-4-oxa-7,10-diaza-1(3,1)-piperidina-5(1,3)-benzenacyclotetradecaphane-8,11,14-trione] | < 0.1 | < 0.1 | 0.1 to 0.5 | 1 to 5 | 0.1 to 0.5 | 0.1 to 0.5
5 | COc1ccc(CCOCCC(=O)N[C@H]2CC(=O)N3CCCC(CCOc4ccc(C)c(c4)CNC(=O)[C@H](CCc4ccccc4)NC2=O)C3)cc1 (stereo partly drawn) [Compound 610, 3-(4-methoxyphenethoxy)-N-((9S,12S)-5^4-methyl-8,11,14-trioxo-9-phenethyl-4-oxa-7,10-diaza-1(3,1)-piperidina-5(1,3)-benzenacyclotetradecaphane-12-yl)propanamide] | < 0.1 | < 0.1 | < 0.1 | < 0.1 | < 0.1 | < 0.1
6 | Cc1ccc2cc1CNC(=O)[C@H](CCc1ccccc1)NC(=O)[C@@H](NC(=O)C(C)(C)C(F)(F)F)CC(=O)N1CCCC(CCO2)C1 (stereo partly drawn) [Compound 646, 3,3,3-trifluoro-2,2-dimethyl-N-((9S,12S)-5^4-methyl-8,11,14-trioxo-9-phenethyl-4-oxa-7,10-diaza-1(3,1)-piperidina-5(1,3)-benzenacyclotetradecaphane-12-yl)propanamide] | < 0.1 | < 0.1 | < 0.1 | < 0.1 | < 0.1 | < 0.1
7 | CC(=O)N[C@H]1CC(=O)N2CCCC(CCOc3ccc(C)c(c3)CNC(=O)[C@H](C3Cc4ccccc4C3)NC1=O)C2 (stereo partly drawn) [Compound 685, N-((9S,12S)-9-(2,3-dihydro-1H-inden-2-yl)-5^4-methyl-8,11,14-trioxo-4-oxa-7,10-diaza-1(3,1)-piperidina-5(1,3)-benzenacyclotetradecaphane-12-yl)acetamide] | < 0.1 | < 0.1 | < 0.1 | < 0.1 | < 0.1 | < 0.1
8 | Cc1ccc2cc1CNC(=O)[C@H](CCc1ccccc1)NC(=O)[C@@H](NC(=O)[C@@H](N)CC(=O)O)CC(=O)N1CCCC(CCO2)C1 (stereo partly drawn) [Compound 719, (3S)-3-amino-4-(((9S,12S)-5^4-methyl-8,11,14-trioxo-9-phenethyl-4-oxa-7,10-diaza-1(3,1)-piperidina-5(1,3)-benzenacyclotetradecaphane-12-yl)amino)-4-oxobutanoic acid] | < 0.1 | < 0.1 | < 0.1 | 0.5 to 1 | 0.1 to 0.5 | 0.1 to 0.5
9 | Cc1ccc2cc1CNC(=O)[C@H](CCc1ccccc1)NC(=O)[C@@H](NC(=O)CCN1CCC3(CCOCC3)CC1)CC(=O)N1CCCC(CCO2)C1 (stereo partly drawn) [Compound 611, N-((9S,12S)-5^4-methyl-8,11,14-trioxo-9-phenethyl-4-oxa-7,10-diaza-1(3,1)-piperidina-5(1,3)-benzenacyclotetradecaphane-12-yl)-3-(3-oxa-9-azaspiro[5.5]undecan-9-yl)propanamide] | < 0.1 | < 0.1 | < 0.1 | < 0.1 | < 0.1 | < 0.1
10 | CC(C)(CO)C(=O)N[C@H]1CC(=O)N2CCCC(CCOc3ccc(F)c(c3)CNC(=O)[C@H](CCc3ccccc3)NC1=O)C2 (stereo partly drawn) [Compound 684, N-((9S,12S)-5^4-fluoro-8,11,14-trioxo-9-phenethyl-4-oxa-7,10-diaza-1(3,1)-piperidina-5(1,3)-benzenacyclotetradecaphane-12-yl)-3-hydroxy-2,2-dimethylpropanamide] | < 0.1 | < 0.1 | < 0.1 | < 0.1 | < 0.1 | < 0.1
11 | Cc1ccc2cc1CNC(=O)[C@H](CCc1ccccc1)NC(=O)[C@@H](NC(=O)C1CC3(C1)CN(C(=O)OC(C)(C)C)C3)CC(=O)N1CCCC(CCO2)C1 (stereo partly drawn) [Compound 580, tert-butyl 6-(((9S,12S)-5^4-methyl-8,11,14-trioxo-9-phenethyl-4-oxa-7,10-diaza-1(3,1)-piperidina-5(1,3)-benzenacyclotetradecaphane-12-yl)carbamoyl)-2-azaspiro[3.3]heptane-2-carboxylate] | < 0.1 | < 0.1 | < 0.1 | < 0.1 | < 0.1 | < 0.1
12 | Cc1ccc2cc1CNC(=O)[C@H](CCc1ccccc1)NC(=O)[C@@H](NC(=O)CCOCc1ccccc1)CC(=O)N1CCCC(CCO2)C1 (stereo partly drawn) [Compound 589, 3-(benzyloxy)-N-((9S,12S)-5^4-methyl-8,11,14-trioxo-9-phenethyl-4-oxa-7,10-diaza-1(3,1)-piperidina-5(1,3)-benzenacyclotetradecaphane-12-yl)propanamide] | < 0.1 | < 0.1 | < 0.1 | < 0.1 | < 0.1 | < 0.1
13 | Cc1ccc2cc1CNC(=O)[C@H](CCc1ccccc1)NC(=O)[C@@H](NC(=O)CCNC(=O)C1CC3CCC1O3)CC(=O)N1CCCC(CCO2)C1 (stereo partly drawn) [Compound 701, N-(3-(((9S,12S)-5^4-methyl-8,11,14-trioxo-9-phenethyl-4-oxa-7,10-diaza-1(3,1)-piperidina-5(1,3)-benzenacyclotetradecaphane-12-yl)amino)-3-oxopropyl)-7-oxabicyclo[2.2.1]heptane-2-carboxamide] | < 0.1 | < 0.1 | < 0.1 | < 0.1 | < 0.1 | < 0.1
